According to publication PMC11547513, “Design, Synthesis and Biological Activity Evaluation of β-Carboline Derivatives Containing Nitrogen Heterocycles” (Molecules, 2024):
Where two headings read alike, the source gives them in different places.

Columns and labels:
Cyclin D1 = assay: Western blot of Cyclin D1 expression in PC-3 cells; type: cell-based, human; conditions: 30 μM, 24 h, β-Tubulin internal reference
Procedure: To analyze the effect of compound 8q on cell cycle, the cycle of PC-3 cells was detected after being treated with compound 8q for 24 h (Figure 5). […] In addition, Cyclin D1, a cell cycle-related protein, is a key regulator of cycle progression, mainly regulating G1/S phase transition. […] In summary, compound 8q can arrest cells in the G0/G1 phase. […]
2.6.Effects of 8q on expression of cell cycle related protein
PC-3 cells were seeded in six-well plates at a density of 3 × 10^5 per well and incubated in 5 % CO2 incubator at 37 ℃ for 24 h. Then different concentrations of 8q and Harmine were added to continue cultivation for 24 h. The prepared 1× RIPA lysis buffer (Solarbio, Beijing, China), as well as protease (Solarbio, Beijing, China) and phosphatase inhibitors (Solarbio, Beijing, China), were added to the well in a ratio of 100:1:1. The cells were scraped off and then lysed on ice for 40 min. Mixed liquid was centrifuged, and the supernatant used the BCA protein assay kit (Beyotime, Shanghai, […]
China) to measure protein concentration. 12.5% SDS-PAGE gel was used to separate the extracted total protein, which was transferred onto a PVDF membrane and sealed with 5% skim milk for 2.5 h. After that, primary antibodies included β-Tubulin and Cyclin D1 were added and incubated overnight at 4 ℃. […]

PC-3 cells [1] = assay: Annexin V-FITC/PI apoptosis, flow cytometry; type: cell-based, human; conditions: 10 μM
From the text: Apoptosis is an important target for antitumor therapy. To explore the antitumor mechanism of compound 8q, cell apoptosis was detected using flow cytometry. […] Moreover, reactive oxygen species (ROS) play a significant role in cell growth, differentiation and apoptosis. Excessive ROS can cause oxidative damage and lead to cell apoptosis. […]
2.3.The effect of compound 8q on cell apoptosis
We used Annexin V-FITC/ PI double staining to evaluate cellular apoptosis via flow cytometry to figure out if apoptosis participates in the inhibition of cell growth.
PC-3 cells were seeded in a six-well plate at a density of 3 × 105, and cultured at 37 ℃ and 5% CO2 for 24 h before adding 10 μM. 20 μM and 30 μM compound 8q and 30 μM Harmine to each well. After 48 h, the cells were collected and stained and incubated flowing the manufacturer ’s protocol of the Annexin V-FITC/PI Apoptosis Detection Kit (Solarbio, Beijing, China). After completion, the cells were immediately detected on the Flow Cytometry (Solarbio, Beijing, China). The experimental results were processed using Flow Jo and Prism 7.04 software. […]

[2] = tested on: Hek-293T (human embryonic kidney cells); assay: MTT assay, in vitro cytotoxicity on normal Hek-293T; conditions: read-out: Inhibitory Activity/% at 10 μM, Hek-293T
From the text: (§1) Cells were purchased from the Cell Bank of the Chinese Academy of Sciences (Kunming, China).

[3] = tested on: K562 (human chronic myeloid leukemia cell); assay: MTT assay, in vitro cytotoxicity on K562
From the text: as §1

PC-3 cells [4] = assay: Wound healing assay; type: cell-based, human; conditions: 24 h, control group 46.41%
Procedure: Given that cell migration plays a pivotal role in tumor cell invasion, to further validate the impact of compound 8q on PC-3 cell motility, a wound healing assay was conducted. […] These findings underscore the potent inhibitory effect of compound 8q on the motility of PC-3 cells. […]
a wound healing assay was performed using the method we previously reported1. In short, PC-3 cells were seeded in a six-well plate at a density of 10 × 105 and incubated at a constant temperature of 37 ℃ and 5% CO2 for 24 h. Then the pipette tip was used to create a uniform wound on the surface of cells. Subsequently, after cleaning twice with PBS, the scratch healing of the 8q treatment group and the positive drug treatment […]
was used to measure and quantify cell migration. […]

[5] = tested on: PC-3 (human prostate cancer cell); assay: MTT assay, in vitro cytotoxicity on PC-3
From the text: as §1

[6] = tested on: T47D (human breast cancer cell); assay: MTT assay, in vitro cytotoxicity on T47D
From the text: as §1

[7] = tested on: A549 (human lung cancer cell); assay: MTT assay, in vitro cytotoxicity on A549
From the text: as §1

For `COc1cc(-c2nc(-c3nnc(SCC(=O)Nc4ccc(CN5CCOCC5)cc4)o3)cc3c2[nH]c2ccccc23)cc(OC)c1OC` [Compound 8q, N-(4-(morpholinomethyl)phenyl)-2-((5-(1-(3,4,5-trimethoxyphenyl)-9H-pyrido[3,4-b]indol-3-yl)-1,3,4-oxadiazol-2-yl)thio)acetamide], the “Expression of Cyclin D1” value (Cyclin D1) was “significantly downregulated”, the “Total apoptosis rate in PC-3 cells” value (PC-3 cells [1]; 48 h) was 63.23% and the “Annexin V-FITC/PI flow cytometry quadrant Q1” value (PC-3 cells [1]; Figure 4A) was 0.35. The “Annexin V-FITC/PI flow cytometry quadrant Q2” value (PC-3 cells [1]; Figure 4A) was 22.7, the “Annexin V-FITC/PI flow cytometry quadrant Q3” value (PC-3 cells [1]; Figure 4A) was 32.9 and the “Annexin V-FITC/PI flow cytometry quadrant Q4” value (PC-3 cells [1]; Figure 4A) was 44.1. It also gave an inhibition at 10 µM [2] of 54.8 ± 0.99%, an IC50 ([3]; Homo sapiens, K562, read-out: IC50 (Mean ± S.D.), K562, average of three replicates) of 11.2 µM and an inhibition at 10 µM ([3]; Homo sapiens, K562, read-out: Inhibitory Activity/% at 10 μM, K562) of 25.6 ± 14.9%. The IC50 ([3]; read-out: IC50 (Mean ± S.D.), K562, average of three replicates) was 11.7 ± 0.21 µM, the “Migration rate of PC-3 cells” value (PC-3 cells [4]; 10 μM) was 29.56% and the “Migration rate of PC-3 cells” value (PC-3 cells [4]; 20 μM) was 26.32%. For the same compound, the “Migration rate of PC-3 cells” value (PC-3 cells [4]; 30 μM) was 19.99%, the IC50 ([5]; Homo sapiens, read-out: IC50 (Mean ± S.D.), PC-3, average of three replicates) was under 10 µM and the inhibition at 10 µM ([5]; Homo sapiens, read-out: Inhibitory Activity/% at 10 μM, PC-3, Table 2 (8 series), 10 μM, average of three replicates, "/" means no anticancer activity) was 46.1 ± 0.74%. It also gave an IC50 ([5]; read-out: IC50 (Mean ± S.D.), PC-3, average of three replicates) of 9.86 ± 1.03 µM, an IC50 ([6]; read-out: IC50 (Mean ± S.D.), T47D) of 9.96 ± 0.63 µM and an inhibition at 10 µM ([6]; read-out: Inhibitory Activity/% at 10 μM, T47D) of 14.5 ± 7.43%. The IC50 ([7]; A549, read-out: IC50 (Mean ± S.D.), A549) was 26.2 ± 1.51 µM and the inhibition at 10 µM ([7]; A549, read-out: Inhibitory Activity/% at 10 μM, A549) was 32.9 ± 4.3%.
